For the experiment, the target named is T1, rhCRTh2 (Homo sapiens, UniProt Q9Y5Y4).
T1 construct: expressed in transfected cells; host or cells: HEK cells (membrane preparation)
T1 sequence (Q9Y5Y4 1-395): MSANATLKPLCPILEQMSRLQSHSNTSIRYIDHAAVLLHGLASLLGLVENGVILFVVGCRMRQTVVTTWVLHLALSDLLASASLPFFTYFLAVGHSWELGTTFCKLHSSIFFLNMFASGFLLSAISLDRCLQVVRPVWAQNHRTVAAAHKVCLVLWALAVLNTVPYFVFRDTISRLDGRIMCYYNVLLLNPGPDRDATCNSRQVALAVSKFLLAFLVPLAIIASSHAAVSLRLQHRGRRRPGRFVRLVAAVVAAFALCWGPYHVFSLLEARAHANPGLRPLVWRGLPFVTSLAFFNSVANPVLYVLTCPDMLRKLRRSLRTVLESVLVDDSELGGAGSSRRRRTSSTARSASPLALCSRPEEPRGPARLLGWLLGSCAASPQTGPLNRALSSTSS
Put plainly: Ligand binding assay ([3H]PGD2, SPA beads, HEK cell membranes). The following applies: [3H]PGD2 binding to membranes of HEK cells expressing rhCRTh2/Gα16, SPA, 2 hours at RT; read-out: pIC50 value (converted). The method, then:
[^3H]PGD2 was purchased from Perkin Elmer Life Sciences with a specific activity of 100-210 Ci/mmol. All other chemicals were of analytical grade.
HEK cells expressing rhCRTh2/Gα16 were routinely maintained in DMEM containing 10% Foetal Bovine Serum (HyClone), 1 mg/ml geneticin, 2 mM L-glutamine and 1% non-essential amino acids. For the preparation of membranes, the adherent transfected HEK cells were grown to confluence in two layer tissue culture factories (Fisher, catalogue number TKT-170-070E). Maximal levels of receptor expression were induced by addition of […] sodium butyrate for the last 18 hours of culture. The adherent cells were washed once with phosphate buffered saline (PBS, 50 ml per cell factory) and detached by the addition of 50 ml per cell factory of ice-cold membrane homogenisation buffer [20 mM HEPES (pH 7.4), 0.1 mM dithiothreitol, 1 mM EDTA, 0.1M phenyl methyl sulphonyl fluoride and 100 μg/ml bacitracin]. Cells were pelleted by centrifugation at 220×g for 10 minutes at 4° C., re-suspended in half the original volume of fresh membrane homogenisation buffer and disrupted using a Polytron homogeniser for 2×20 second bursts keeping the tube in ice at all times. […] The final pellet was re-suspended in 4 ml of membrane homogenisation buffer per cell factory used and the protein content determined. […]
All assays were performed in Corning clear bottomed, white 96-well NBS plates (Fisher). […] (The optimum coating concentrations were determined for each batch of membranes) The beads were pelleted by centrifugation (800×g for 7 minutes at 4° C.), washed once with assay buffer (50 mM HEPES pH 7.4 containing 5 mM magnesium chloride) and finally re-suspended in assay buffer at a bead concentration of 10 mg/ml. […]
Compounds and DK-PGD2 were dissolved in DMSO and diluted in the same solvent to 100× the required final concentration. […] The assay plate was incubated at RT for 2 hours and counted on a Wallac Microbeta liquid scintillation counter (1 minute per well).

The source of these data is US20080293775A1, “Substituted Diphenylethers, -Amines, -Sulfides and -Methanes for the Treatment of Respiratory Disease” (ASTRAZENECA AB, priority 2005, published 2008).

As for `CS(=O)(=O)c1ccc(Sc2cc(Cl)ccc2OCc2nnn[nH]2)c(Cl)c1` [Example 4], the IC50 is 158 nM.
With `CC(=O)NS(=O)(=O)Cc1ccc(Cl)cc1Oc1ccc(S(C)(=O)=O)cc1Cl` [Example 6, N-({4-chloro-2-[2-chloro-4-(methylsulfonyl)phenoxy]benzyl}sulfonyl)acetamide], the IC50 is 158 nM.
For the compound `CS(=O)(=O)NC(=O)Cc1ccc(Cl)c(Oc2ccc(S(C)(=O)=O)cc2Cl)c1` [Example 9, 2-{4-chloro-3-[2-chloro-4-(methylsulfonyl)phenoxy]phenyl}-N-(methylsulfonyl)acetamide], the IC50 is 141 nM.
